In US11389415B2, “Methods of regulating cannabinoid receptor activity-related disorders and diseases” (The United States of America as represented by the …, priority 2012, dated 2022):

Key:
cyclin A and cyclin D1 = assay: Western blot of cell cycle regulator proteins (cyclin A, cyclin D1), C6 glioma; design: species or system mouse; conditions: C6 glioma in vivo and in vitro
Description: Western Blot Analysis. Frozen tumor tissues were lysed with radioimmune precipitation buffer containing EGTA and EDTA (Boston BioProducts, Ashland, Mass.) supplemented with a phosphatase inhibitor cocktail (EMB-Calbiochem), and protease inhibitor cocktail (Sigma-Aldrich), according to standard protocols. Equal amounts of protein from the clarified lysates were separated by SDS-polyacrylamide gel electrophoresis under reducing conditions (Invitrogen, Carlsbad, Calif.), and electrotransferred onto polyvinylidene difluoride membranes using the iBlot system (Invitrogen). Western blots were performed according to standard methods, which involved blocking the membrane in 5% non-fat milk, followed by sequential incubation method with the primary antibody of interest and secondary antibody conjugated with the enzyme horseradish peroxidase. The detection of immunoreactive bands was performed by chemiluminescence using the ECL Plus Western Blotting Detection System (GE Healthcare, Piscataway, N.J.). Quantitation of the protein bands was done by volume densitometry using ImageJ software (National Institutes of Health, Bethesda, Md.). […]

U87MG cells = assay: [3H]-Thymidine incorporation in U87MG cells; assay type: cell-based, human; conditions: compound alone
Description: Maintenance and Treatment of Cell Lines. Human HepG2 hepatocarcinoma cells and human U87MG glioma cells (ATCC, Manassas, Va.) were maintained in EMEM medium supplemented with 1% L-glutamine, 1% sodium pyruvate, 1% penicillin/streptomycin, and 10% FBS (Hyclone, Logan, Utah). The human 1321N1 astrocytoma cells (European Collection of Cell Cultures, Sigma-Aldrich) were cultured in Dulbecco's modified Eagle's medium supplemented with 10% FBS and penicillin/streptomycin. All cell lines were cultured at 37° C. in 5% CO2, and the medium was replaced every 2-3 days.
Cells were seeded in 12-well plates at approximately 50,000 cells/well and incubated at 37° C. After 24 hours, the wells were rinsed with PBS and replaced with serum-free medium containing the appropriate concentration of the test compounds. After another 24-hour incubation at 37° C., 1 μCi of [^3H]-thymidine was added to each well and incubated at 37° C. for 16 hours. [^3H]-Thymidine incorporation into DNA was monitored after the cells were washed twice with PBS and then lysed in 600 μL of 0.1N NaOH for 30 minutes with shaking. The lysate was then mixed with 3 mL of liquid scintillation cocktail (Beckman Coulter, Inc., Brea, Calif.), and radioactivity was measured by liquid scintillation counting using Beckman Coulter LS6000IC Scintillation Counter. Data are shown as CPM incorporated compared to the control cells.

[1] = Effect on central nervous system functions; assay type: in vivo; conditions: as compared to tetrahydrocannabinol
Description: Additional studies were performed which further evaluated the effect of MNF on central nervous system functions.

ERK1/2 = ERK1/2 phosphorylation (GPR55 downstream signaling) in HepG2 cells; assay type: cell-based, human
Description: Western blot analysis. For detection of intracellular signaling proteins, cells were lysed in radioimmunoprecipitation buffer containing EGTA and EDTA (Boston BioProducts, Ashland, Mass.). The lysis buffer contained a protease inhibitor cocktail (Sigma-Aldrich) and phosphatase inhibitor cocktail (Calbiochem, San Diego, Calif.). Equivalent amount of proteins (14 and 54 μg/well for PANC-1 and HepG2 cells, respectively) were separated on 4 to 12% precast gels (Invitrogen, Carlsbad, Calif.) using SDS-polyacrylamide gel electrophoresis under reducing conditions and then electrophoretically transferred onto polyvinylidene fluoride membrane (Invitrogen). Western blots were performed according to standard methods, which involved blocking in 5% non-fat milk and incubated with the antibody of interest, followed by incubation with a secondary antibody conjugated with the enzyme horseradish perodixase. The detection of immunoreactive bands was performed by chemiluminescence using the ECL Plus Western Blotting Detection System (GE Healthcare, Piscataway, N.J.). The quantification of bands was done by volume densitometry by using ImageJ software. The rabbit polyclonal antibodies against EGFR were obtained from Cell Signaling Technology, Inc. (Beverly, Mass.) and the monoclonal anti-Hsp90 was purchased from Santa Cruz Biotechnology, Inc. (Santa Cruz, Calif.).
Effect of MNF on O-1602-mediated increase in cell signaling. Serum-starved cells were pretreated in the absence or presence of 1 μM MNF for 10 minutes followed by a 10 minute incubation with 0, 2.5 and 10 μM O-1602 or 10% FBS, after which the levels of total ERK2 and phosphorylated forms of ERK1/2 (pErk1/2, Thr202/Tyr204), were determined by Western blotting technique. All primary antibodies were purchased from Cell Signaling Technology and used at a dilution recommended by the manufacturer.

[2] = MNF accumulation in vivo in C6 glioma tumors; design: species or system mouse; conditions: C6 xenograft tumors at completion of study
Description: Evaluation of MNF accumulation in vivo in C6 glioma tumors. The accumulation of MNF in vivo in C6 tumor xenografts in athymic mice was assessed in comparison with vehicle-treated tumor-bearing animals. The frozen tumor samples were thawed, and then homogenized. The concentration of MNF and its metabolites was determined by HPLC followed by LC-MS/MS. In brief, the assays were conducted using an Eclipse XDB-C18 guard column (4.6 mm×12.5 mm) and an Atlantis HILIC column (150×2.1 mm ID, […]). The mobile phase consisted of water containing 0.1% formic acid as component A and acetonitrile as component B. A linear gradient was run as follows: 0 minutes 95% B; 5 minutes 60% B; 6 minutes 80% B; 10 minutes 95% B at a flow rate of 1.0 ml/minute. The total run time was 15 minutes per sample. Identification and quantification of the analytes was accomplished using an API-4000 LC-MS/MS in positive electrospray ionization mode and data was acquired employing multiple reaction monitoring (MRM) and the following MRM transitions: MNF (369-200); MNF-Gluc (545-200). Tumor tissues from vehicle-injected mice were used as controls.

rat C6 glioma cells = assay: 3H-Thymidine incorporation in rat C6 glioma cells; assay type: cell-based; conditions: 24 hours
Description: Cell culture. The rat-derived C6 glioma cell line was obtained from the American Type Culture Collection (Manassas, Va.). The cells were routinely maintained in DMEM supplemented with L-glutamine, 1% penicillin/streptomycin solution, and 10% FBS in a humidified CO2 incubator at 37° C.
3H-Thymidine incorporation. C6 glioma cells were seeded in 12-well plates at ˜5×10^4 cells/well and incubated for 24 hours followed by a second 24-hour incubation with various concentrations of MNF. Radiolabeled thymidine (10 Ci/mmol; PerkinElmer Life and Analytical Sciences, Waltham, Mass.) was added at 1 μCi per well for 16 hours and its incorporation into DNA was then measured. Each treatment group was performed in triplicate and three independent studies were carried out.

COc1ccc(C[C@@H](C)NC[C@H](O)c2cc(O)cc(O)c2)c2ccccc12 [(R,R′)-MNF, (R,R′)-4′-methoxy-1-naphthylfenoterol]
expression of cell cycle regulator proteins (cyclin A and cyclin D1): marked reduction in the expression of cell cycle regulator proteins
effect on cellular proliferation (U87MG cells): potent inhibition of cellular proliferation
effects on the central nervous system [1]: not have any significant negative effects on the central nervous system
effect on O-1602-mediated ERK phosphorylation (ERK1/2; HepG2, 1 μM pretreatment 10 minutes): abrogated O-1602 responsiveness
effect on serum-induced ERK phosphorylation (ERK1/2; HepG2, 1 μM pretreatment, 10% FBS): potently inhibited serum-induced ERK phosphorylation in both cell lines
tissue concentration of MNF in tumor ([2]; cohort 1, n=9): 141.0±52.5 ng/ml/g tissue
tissue concentration of MNF in tumor ([2]; cohort 2, n=7): 214.4±65.5 ng/ml/g tissue
inhibition of C6 cell growth / reduction in mitogenesis (rat C6 glioma cells; 20 nM): 54.3±1.2%
IC50 (rat C6 glioma cells; then [3H]-thymidine 16 hours, read-out: IC50, growth inhibition of rat C6 glioma cell line): ~1 nM
